Source: publication PMC9959258, “Discovery of Polyphenolic Natural Products as SARS-CoV-2 M^pro Inhibitors for COVID-19” (Pharmaceuticals, 2023)
“Also recorded” adds a separate entry of the source. Like-named read-outs stand apart in the source and are kept apart here.

Key:
SARS-CoV-2 M^pro = SARS-CoV-2 M^pro (Severe acute respiratory syndrome coronavirus 2, UniProt P0DTD1); assay: biochemical; format: biochemical; settings: for inhibition at 10 µM: read-out: SARS-CoV-2 M^pro % Inhibition at 10 μM; for M^pro inhibition, result in words: tested at 10 µM
[1] = system: SARS-CoV-2 isolate NK, Pango lineage B.1.513; assay: microbe, parasite or virus in culture; format: cell-based; settings: for EC50: read-out: EC50 antiviral activity; for inhibition at 10 µM: Severe acute respiratory syndrome coronavirus 2, Calu-3, 24 h, read-out: inhibition of viral titers; for inhibition of viral titers: 10 µM
[2] = target: T1, malate dehydrogenase (MDH) (Sus scrofa, UniProt P00346); format: biochemical; settings: 31.6 µM, with or without 0.01% (v/v) Triton X-100
T1 sequence (P00346 25-338): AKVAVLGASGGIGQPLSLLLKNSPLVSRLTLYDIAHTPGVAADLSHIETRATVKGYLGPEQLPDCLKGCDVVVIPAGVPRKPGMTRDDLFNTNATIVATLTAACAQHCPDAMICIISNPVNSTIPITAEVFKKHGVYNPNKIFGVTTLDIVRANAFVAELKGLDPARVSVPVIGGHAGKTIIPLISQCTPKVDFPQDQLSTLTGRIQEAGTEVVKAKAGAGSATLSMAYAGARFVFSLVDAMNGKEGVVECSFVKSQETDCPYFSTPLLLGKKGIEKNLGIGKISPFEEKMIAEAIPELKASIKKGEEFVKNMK

[3] = Dynamic light scattering (DLS) for colloidal particle formation; format: physicochemical; settings: 31.6 µM, 50 mM KPi pH 7.0, 1% DMSO
fatty acid synthase = settings: background statement, no reference given; cited from earlier work
HIV-1 protease = settings: background statement, no reference given; cited from earlier work
[4] = system: prostaglandin E2 (PGE2) synthesis; settings: background statement, no reference given; read-out: IC50 for reduction of prostaglandin E2 synthesis; cited from earlier work
nitric oxide synthesis = settings: background statement, no reference given; read-out: IC50 for reduction of nitric oxide synthesis; cited from earlier work
[5] = Severe acute respiratory syndrome coronavirus 2, 24 h
[6] = FRET assay, 50 nM M^pro, 10 min preincubation
[7] = compound at 10 μM, FRET assay, 50 nM M^pro

Compound | IC50 (SARS-CoV-2 M^pro; [6]) [µM] | inhibition at 10 µM (SARS-CoV-2 M^pro; [7]) [%] | other results
COC1=C[C@@H]2[C@@H]3Cc4ccc(OC)c(O)c4[C@]2(CCN3C)CC1=O [Sinomenine] | – | – | IC50 (SARS-CoV-2 M^pro): > 10 µM; inhibition at 10 µM (SARS-CoV-2 M^pro): 4.8%
CC(C)C(=O)OC[C@H]1O[C@@H](n2ccc(NO)nc2=O)[C@H](O)[C@@H]1O [Molnupiravir, reference compound] | – | – | EC50 [1, 5]: 0.00545 µM
C=C1C(=O)OC2C1CCC(C)=CCCC1(C)OC21 (single isomer, unassigned; (-)) [(−)-Parthenolide] | > 10 | 20.1 | –
Myricitrin | – | – | SARS-CoV-2 M^pro % Inhibition at 10 μM (SARS-CoV-2 M^pro; [7]): 11.67%; M^pro inhibition, result in words (SARS-CoV-2 M^pro): did not, however, inhibit M^pro; M^pro inhibition, result in words (SARS-CoV-2 M^pro; listed as myricitrin): did not inhibit M^pro
CCCCCCCCCCC[C@@H](C[C@@H]1OC(=O)[C@H]1CCCCCC)OC(=O)[C@H](CC(C)C)NC=O [Orlistat, reference compound] | > 10 | 21 | –
C[C@]12CC[C@H](O)C[C@H]1CC[C@@H]1[C@@H]2CC[C@]2(C)[C@@H](c3ccc(=O)oc3)C[C@H]3O[C@]132 [Resibufogenin] | – | – | IC50 (SARS-CoV-2 M^pro): > 10 µM; inhibition at 10 µM (SARS-CoV-2 M^pro): 6.32%
C=C1CC[C@H]2C(=C)CC[C@H]3C(=C)C(=O)O[C@@H]3[C@@H]12 [Dehydrocostus lactone] | > 10 | 13.4 | –
O=c1cc(-c2cc(O)c(O)c(O)c2)oc2cc(O)cc(O)c12 [Tricetin] | 7.84 | 72.3 | –
O=c1cc(-c2ccc(O)c(O)c2)oc2cc(O)cc(O)c12 [Luteoline] | > 10 | 9.65 | M^pro inhibition, result in words (SARS-CoV-2 M^pro): unable to inhibit M^pro
O=c1c(O)c(-c2ccc(O)c(O)c2)oc2cc(O)ccc12 [Fisetin] | > 10 | – | SARS-CoV-2 M^pro % Inhibition at 10 μM (SARS-CoV-2 M^pro; [7]): −11.21%
Oc1cc(O)cc(/C=C/c2ccc(O)c(O)c2)c1 [Piceatannol] | 2.03 | 76.9 | EC50 [1, 5]: 0.00342 µM; inhibition at 10 µM [1]: 81%
CCOC1=C(O)C(=O)O[C@@H]1[C@@H](O)CO [3-O-Ethyl-L-ascorbic acid] | – | 24.9 | IC50 (SARS-CoV-2 M^pro): > 10 µM
O=C(/C=C/c1ccc(O)c(O)c1)O[C@H](Cc1ccc(O)c(O)c1)C(=O)O [Rosmarinic acid] | 6.84 | 50.6 | EC50 [1, 5]: 0.0167 µM; inhibition at 10 µM [1]: 81%
O=C1O[C@H]([C@@H](O)CO)C(O)=C1O [L-Ascorbic acid] | > 10 | 22.2 | –
C=C1C(=O)O[C@@H]2/C=C(\C)CC/C=C(\C)CC[C@@H]12 [Costunolide] | > 10 | 28 | –
COC(=O)C1=CO[C@@H](O[C@@H]2O[C@H](CO)[C@@H](O)[C@H](O)[C@H]2O)[C@@H]2[C@@H](C)[C@@H](O)C[C@H]12 [Loganin] | – | 29.4 | IC50 (SARS-CoV-2 M^pro): > 10 µM
CC1=C2C3OC(=O)C(C)C3CCC2(C)C=CC1=O (stereo not drawn) [(−)-α-Santonin] | > 10 | 24.1 | –
O=c1c(O)c(-c2cc(O)c(O)c(O)c2)oc2cc(O)ccc12 [Robinetin] | 0.96 | 86.1 | inhibition of viral titers [1]: 89.6%; EC50 [1]: 0.0013 µM; MDH inhibition with 0.01% Triton X-100 (detergent reversibility) [2]: reversed in the presence of detergent; colloidal-like particle formation by DLS [3]: neither of these compounds produced colloidal-like particles; also recorded: do not form colloidal-like particles
Cc1coc2c1C(=O)C(=O)c1c-2ccc2c(C)cccc12 [Tanshinone I] | – | 7.03 | –
O=C(OC1Cc2c(O)cc(O)cc2OC1c1cc(O)c(O)c(O)c1)c1cc(O)c(O)c(O)c1 [L-Epigallocatechin gallate] | – | 105 | M^pro inhibition, result in words (SARS-CoV-2 M^pro): completely inhibit the SARS-CoV-2 M^pro activity; inhibition of viral titers [1]: 81.4%; EC50 [1]: 0.115 µM; MDH inhibition with 0.01% Triton X-100 (detergent reversibility) [2]: reversed in the presence of detergent; colloidal-like particle formation by DLS ([3]; listed as ECGC): do not form colloidal-like particles; colloidal-like particle formation by DLS ([3]; listed as EGCG): neither of these compounds produced colloidal-like particles
O=c1cc(-c2ccc(O)cc2)oc2cc(O)c(O)c(O)c12 [Scutellarein] | – | 76.1 | EC50 [1, 5]: 0.00257 µM; inhibition at 10 µM [1]: 87%
C=C1C(=O)[C@]23[C@H](O)[C@H]1CC[C@H]2[C@@]12CO[C@]3(O)[C@@H](O)[C@@H]1C(C)(C)CC[C@@H]2O [Oridonin] | – | 81.9 | EC50 [1, 5]: 0.0128 µM; inhibition at 10 µM [1]: 89%
Oc1ccc(/C=C/c2cc(O)cc(O)c2)cc1 [Resveratrol] | > 10 | 5.96 | M^pro inhibition, result in words (SARS-CoV-2 M^pro): unable to inhibit the enzyme
C=C1C(=O)OC2CC3(C)CCCC(C)C3=CC12 (stereo not shown) [Alantolacton] | > 10 | 27.6 | –
CC(C)=CCC[C@]1(C)C=Cc2c(O)c3c(c(CC=C(C)C)c2O1)O[C@]12C(=C[C@@H]4C[C@H]1C(C)(C)O[C@@]2(C/C=C(/C)C(=O)O)C4=O)C3=O [Gambogic acid] | > 10 | 22.8 | –
O=C(/C=C/c1ccc(O)c(O)c1/C=C/c1ccc(O)c(O)c1)O[C@H](Cc1ccc(O)c(O)c1)C(=O)O [Salvianolic acid A] | – | 50.8 | –
C[C@@H]1O[C@@H](Oc2c(-c3ccc(O)c(O)c3)oc3cc(O)cc(O)c3c2=O)[C@H](O)[C@H](O)[C@H]1O [Quercitrin] | > 10 | 2.42 | M^pro inhibition, result in words (SARS-CoV-2 M^pro): unable to inhibit the M^pro enzyme
COc1c(O)cc2oc3cc(O)c(CC=C(C)C)c(O)c3c(=O)c2c1CC=C(C)C [α-Mangostin] | 25.1 | – | IC50 (fatty acid synthase): 5.54 µM; IC50 (HIV-1 protease): 5.12 µM; IC50 [4]: 12.4 µM; IC50 (nitric oxide synthesis): 11.1 µM
C=C(C)C1CCC2=CC(=O)CC(C)C2(C)C1 (single isomer, unassigned; (+)) [(+)-Nootkaton] | > 10 | 32 | –
COc1ccc2ccc(=O)oc2c1CC=C(C)C [Osthole] | > 10 | 4.98 | –
